# Data published in patent US10167262B2, “Herbicidal substituted 3-arylpyrazoles” (FMC CORPORATION, priority 2014, dated 2019).
# Legend:
# Test in all cases: Test D postemergence controlled growth environment test, plant response rating 0-100
# Assay type in all cases: in vivo
# [1] = tested on: oilseed rape (Brassica napus)
# Text: (§1) Seeds of plant species selected from bluegrass (annual bluegrass, Poa annua), blackgrass (Alopecurus myosuroides), canarygrass (Phalaris minor), chickweed (common chickweed, Stellaria media), galium (catchweed bedstraw, Galium aparine), downy bromegrass (Bromus tectorum), field violet (Viola arvensis), green foxtail (Setaria viridis), deadnettle (henbit deadnettle, Lamium amplexicaule), Italian ryegrass (Lolium multiflorum), kochia (Kochia scoparia), lambsquarters (Chenopodium album), oilseed rape (Brassica napus), pigweed (Amaranthus retroflexus), Russian thistle (Salsola kali), spring barley (Hordeum vulgare), spring wheat (Triticum aestivum), wild buckwheat (Polygonum convolvulus), wild mustard (Sinapis arvensis), wild oat (Avena fatua), windgrass (Apera spica-venti), winter barley (Hordeum vulgare), and winter wheat (Triticum aestivum) were planted in pots containing Redi-Earth® planting medium (Scotts Company, 14111 Scottslawn Road, Marysville, Ohio 43041) comprising spaghnum peat moss, vermiculite, wetting agent and starter nutrients and treated with postemergence applications of test chemicals formulated in a non-phytotoxic solvent mixture which included a surfactant. Plants ranged in height from 2 to 18 cm (1- to 4-leaf stage). Treated plants and controls were maintained in a controlled growth environment for 14 days after which time all species were compared to controls and visually evaluated. Plant response ratings, summarized in Table D, are based on a scale of 0 to 100 where 0 is no effect and 100 is complete control. A dash (-) response means no test result.
# [2] = tested on: pigweed (Amaranthus retroflexus)
# Text: as §1
# [3] = tested on: chickweed (common chickweed, Stellaria media)
# Text: as §1
# [4] = tested on: green foxtail (Setaria viridis)
# Text: as §1
# [5] = tested on: field violet (Viola arvensis)
# Text: as §1
# [6] = tested on: bluegrass (annual bluegrass, Poa annua)
# Text: as §1
# wild oat (Avena fatua) = tested on: wild oat (Avena fatua)
# Text: as §1
# [7] = tested on: winter barley (Hordeum vulgare)
# Text: as §1
# [8] = tested on: windgrass (Apera spica-venti)
# Text: as §1
# [9] = tested on: Italian ryegrass (Lolium multiflorum)
# Text: as §1
# [10] = tested on: Russian thistle (Salsola kali)
# Text: as §1
# [11] = tested on: canarygrass (Phalaris minor)
# Text: as §1
# [12] = tested on: downy bromegrass (Bromus tectorum)
# Text: as §1
# [13] = tested on: spring wheat (Triticum aestivum)
# Text: as §1
# [14] = tested on: spring barley (Hordeum vulgare)
# Text: as §1
# [15] = tested on: blackgrass (Alopecurus myosuroides)
# Text: as §1
# kochia (Kochia scoparia) = tested on: kochia (Kochia scoparia)
# Text: as §1
# [16] = tested on: wild mustard (Sinapis arvensis)
# Text: as §1
# [17] = tested on: deadnettle (henbit deadnettle, Lamium amplexicaule)
# Text: as §1
# [18] = tested on: galium (catchweed bedstraw, Galium aparine)
# Text: as §1
compound,measurement,setting,value
"C#CCn1cc(C(=O)c2ccccc2)c(-c2cc(Cl)cc(Cl)c2)n1 [Compound 39, [3-(3,5-dichlorophenyl)-1-(2-propyn-1-yl)-1H-pyrazol-4-yl]phenylmethanone]","Plant response rating, Oilseed Rape",[1]; 16 g ai/ha,0
same,"Plant response rating, Oilseed Rape",[1]; 31 g ai/ha,0
same,"Plant response rating, Oilseed Rape",[1]; 62 g ai/ha,10
same,"Plant response rating, Oilseed Rape",[1]; 125 g ai/ha,20
same,"Plant response rating, Oilseed Rape",[1]; 250 g ai/ha,60
same,"Plant response rating, Pigweed",[2]; 16 g ai/ha,30
same,"Plant response rating, Pigweed",[2]; 31 g ai/ha,30
same,"Plant response rating, Pigweed",[2]; 62 g ai/ha,50
same,"Plant response rating, Pigweed",[2]; 125 g ai/ha,75
same,"Plant response rating, Pigweed",[2]; 250 g ai/ha,80
same,"Plant response rating, Chickweed",[3]; 16 g ai/ha,0
same,"Plant response rating, Chickweed",[3]; 31 g ai/ha,0
same,"Plant response rating, Chickweed",[3]; 62 g ai/ha,10
same,"Plant response rating, Chickweed",[3]; 125 g ai/ha,30
same,"Plant response rating, Chickweed",[3]; 250 g ai/ha,50
same,"Plant response rating, Foxtail, Green",[4]; 16 g ai/ha,0
same,"Plant response rating, Foxtail, Green",[4]; 31 g ai/ha,0
same,"Plant response rating, Foxtail, Green",[4]; 62 g ai/ha,0
same,"Plant response rating, Foxtail, Green",[4]; 125 g ai/ha,0
same,"Plant response rating, Foxtail, Green",[4]; 250 g ai/ha,10
same,"Plant response rating, Field Violet",[5]; 16 g ai/ha,0
same,"Plant response rating, Field Violet",[5]; 31 g ai/ha,0
same,"Plant response rating, Field Violet",[5]; 62 g ai/ha,10
same,"Plant response rating, Field Violet",[5]; 125 g ai/ha,10
same,"Plant response rating, Bluegrass",[6]; 16 g ai/ha,0
same,"Plant response rating, Bluegrass",[6]; 31 g ai/ha,0
same,"Plant response rating, Bluegrass",[6]; 62 g ai/ha,0
same,"Plant response rating, Bluegrass",[6]; 125 g ai/ha,0
same,"Plant response rating, Bluegrass",[6]; 250 g ai/ha,0
same,"Plant response rating, Oat, Wild",wild oat (Avena fatua); 16 g ai/ha,0
same,"Plant response rating, Oat, Wild",wild oat (Avena fatua); 31 g ai/ha,0
same,"Plant response rating, Oat, Wild",wild oat (Avena fatua); 62 g ai/ha,0
same,"Plant response rating, Oat, Wild",wild oat (Avena fatua); 125 g ai/ha,0
same,"Plant response rating, Oat, Wild",wild oat (Avena fatua); 250 g ai/ha,0
same,"Plant response rating, Barley, Winter",[7]; 16 g ai/ha,0
same,"Plant response rating, Barley, Winter",[7]; 31 g ai/ha,0
same,"Plant response rating, Barley, Winter",[7]; 62 g ai/ha,0
same,"Plant response rating, Barley, Winter",[7]; 125 g ai/ha,0
same,"Plant response rating, Barley, Winter",[7]; 250 g ai/ha,0
same,"Plant response rating, Windgrass",[8]; 16 g ai/ha,0
same,"Plant response rating, Windgrass",[8]; 31 g ai/ha,0
same,"Plant response rating, Windgrass",[8]; 62 g ai/ha,0
same,"Plant response rating, Windgrass",[8]; 125 g ai/ha,0
same,"Plant response rating, Windgrass",[8]; 250 g ai/ha,0
same,"Plant response rating, Ryegrass, Italian",[9]; 16 g ai/ha,0
same,"Plant response rating, Ryegrass, Italian",[9]; 31 g ai/ha,0
same,"Plant response rating, Ryegrass, Italian",[9]; 62 g ai/ha,0
same,"Plant response rating, Ryegrass, Italian",[9]; 125 g ai/ha,0
same,"Plant response rating, Ryegrass, Italian",[9]; 250 g ai/ha,10
same,"Plant response rating, Russian Thistle",[10]; 16 g ai/ha,0
same,"Plant response rating, Russian Thistle",[10]; 31 g ai/ha,0
same,"Plant response rating, Russian Thistle",[10]; 62 g ai/ha,10
same,"Plant response rating, Russian Thistle",[10]; 125 g ai/ha,20
same,"Plant response rating, Russian Thistle",[10]; 250 g ai/ha,25
same,"Plant response rating, Canarygrass",[11]; 16 g ai/ha,0
same,"Plant response rating, Canarygrass",[11]; 31 g ai/ha,0
same,"Plant response rating, Canarygrass",[11]; 62 g ai/ha,0
same,"Plant response rating, Canarygrass",[11]; 125 g ai/ha,0
same,"Plant response rating, Canarygrass",[11]; 250 g ai/ha,0
same,"Plant response rating, Bromegrass, Downy",[12]; 16 g ai/ha,0
same,"Plant response rating, Bromegrass, Downy",[12]; 31 g ai/ha,0
same,"Plant response rating, Bromegrass, Downy",[12]; 62 g ai/ha,0
same,"Plant response rating, Bromegrass, Downy",[12]; 125 g ai/ha,0
same,"Plant response rating, Bromegrass, Downy",[12]; 250 g ai/ha,0
same,"Plant response rating, Wheat, Spring",[13]; 16 g ai/ha,0
same,"Plant response rating, Wheat, Spring",[13]; 31 g ai/ha,0
same,"Plant response rating, Wheat, Spring",[13]; 62 g ai/ha,0
same,"Plant response rating, Wheat, Spring",[13]; 125 g ai/ha,0
same,"Plant response rating, Wheat, Spring",[13]; 250 g ai/ha,0
same,"Plant response rating, Barley, Spring",[14]; 16 g ai/ha,0
same,"Plant response rating, Barley, Spring",[14]; 31 g ai/ha,0
same,"Plant response rating, Barley, Spring",[14]; 62 g ai/ha,0
same,"Plant response rating, Barley, Spring",[14]; 125 g ai/ha,0
same,"Plant response rating, Barley, Spring",[14]; 250 g ai/ha,0
same,"Plant response rating, Blackgrass",[15]; 16 g ai/ha,0
same,"Plant response rating, Blackgrass",[15]; 31 g ai/ha,0
same,"Plant response rating, Blackgrass",[15]; 62 g ai/ha,0
same,"Plant response rating, Blackgrass",[15]; 125 g ai/ha,0
same,"Plant response rating, Blackgrass",[15]; 250 g ai/ha,20
same,"Plant response rating, Kochia",kochia (Kochia scoparia); 16 g ai/ha,0
same,"Plant response rating, Kochia",kochia (Kochia scoparia); 31 g ai/ha,0
same,"Plant response rating, Kochia",kochia (Kochia scoparia); 62 g ai/ha,20
same,"Plant response rating, Kochia",kochia (Kochia scoparia); 125 g ai/ha,10
same,"Plant response rating, Kochia",kochia (Kochia scoparia); 250 g ai/ha,20
same,"Plant response rating, Mustard, Wild",[16]; 16 g ai/ha,20
same,"Plant response rating, Mustard, Wild",[16]; 31 g ai/ha,20
same,"Plant response rating, Mustard, Wild",[16]; 62 g ai/ha,70
same,"Plant response rating, Mustard, Wild",[16]; 125 g ai/ha,70
same,"Plant response rating, Mustard, Wild",[16]; 250 g ai/ha,80
same,"Plant response rating, Deadnettle",[17]; 16 g ai/ha,0
same,"Plant response rating, Deadnettle",[17]; 31 g ai/ha,0
same,"Plant response rating, Deadnettle",[17]; 62 g ai/ha,0
same,"Plant response rating, Deadnettle",[17]; 125 g ai/ha,0
same,"Plant response rating, Deadnettle",[17]; 250 g ai/ha,0
same,"Plant response rating, Galium",[18]; 16 g ai/ha,0
same,"Plant response rating, Galium",[18]; 31 g ai/ha,0
same,"Plant response rating, Galium",[18]; 62 g ai/ha,0
same,"Plant response rating, Galium",[18]; 125 g ai/ha,0
same,"Plant response rating, Galium",[18]; 250 g ai/ha,0
